Literature values in patent US9381220B2, “Sceletium extract and uses thereof” (H. L. Hall & Sons Limited, priority 2009, dated 2016).

How the values were obtained:
[1] = fermentation, exposure to light, exposure to heat, aqueous medium
[2] = target: 5-HT uptake (Homo sapiens, UniProt P31645); conditions: as described in U.S. Pat. No. 6,288,104
[3] = system: PDE4; conditions: Napoletano et al. 2001

5-HT uptake, sequence (P31645 whole entry): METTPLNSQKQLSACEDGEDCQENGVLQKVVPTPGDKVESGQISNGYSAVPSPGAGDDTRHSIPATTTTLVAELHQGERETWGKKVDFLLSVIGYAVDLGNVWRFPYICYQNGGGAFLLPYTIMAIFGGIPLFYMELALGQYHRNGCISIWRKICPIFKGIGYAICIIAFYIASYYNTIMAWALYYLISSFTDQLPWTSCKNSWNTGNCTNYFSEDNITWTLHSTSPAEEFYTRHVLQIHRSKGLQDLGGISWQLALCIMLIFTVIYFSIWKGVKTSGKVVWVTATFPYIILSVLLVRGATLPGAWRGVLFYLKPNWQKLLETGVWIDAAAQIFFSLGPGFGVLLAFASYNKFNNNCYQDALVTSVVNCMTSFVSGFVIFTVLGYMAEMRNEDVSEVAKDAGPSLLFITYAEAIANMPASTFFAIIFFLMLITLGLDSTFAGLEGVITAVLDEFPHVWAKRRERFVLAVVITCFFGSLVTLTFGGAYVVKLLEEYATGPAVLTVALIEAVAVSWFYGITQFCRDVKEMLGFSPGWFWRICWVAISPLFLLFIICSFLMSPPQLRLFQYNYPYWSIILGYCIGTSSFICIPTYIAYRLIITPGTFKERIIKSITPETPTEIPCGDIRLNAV

SMILES: COc1ccc([C@@]23CCC(=O)C[C@@H]2N(C)CC3)cc1OC [mesembrine]
- stability [1]: unstable

SMILES: COc1ccc(C23C=CC(O)CC2N(C)CC3)cc1OC (stereo not drawn) [mesembrenol]
- 5-HT uptake inhibitory activity [2]: potent 5-HT uptake inhibitory activity

SMILES: COc1ccc(C23CCC(=O)CC2N(C)CC3)cc1OC.Cl (stereo not drawn) [Mesembrine hydrochloride]
- PDE4 inhibition [3]: weak PDE4 inhibitor
